Experimental data as given in patent publication US12465603B2, “Phthalazinone based modulators for the treatment of disease” (Soley Therapeutics, Inc., priority 2022, dated 2025).

Experiments:
[1] = system: A2058 (ATCC, CRL-11147) cells; test: Cell viability assay (Cell Titre Glo, 72 hours) in A2058 cells; assay type: cell-based; settings: Homo sapiens
Method: (§1) Example 31: Cell Viability Assays
(§2) Phthalazinone based modulators as described herein were dispensed into 384 well CulturPlates™ (PerkinElmer) using Echo 555 acoustic dispensing in 10-point dose response curves at a final top concentration of 30 μM following a 1 in 3 dilution series. A2058 (ATCC, CRL-11147) or PA1 (ECACC, 90013101) cells were added directly to a compound at a density of 5000 cells per well in a final volume of 50 μL and incubated for 72 hours at 37° C., 5% CO2. Viability was assessed using Cell Titre Glo® (Promega) according to the manufacturer's instructions (25 μL per well) and IC50 curves were generated for each inhibitor using IDBS ActivityBase data analysis software.

[2] = system: PA1 (ECACC, 90013101) cells; test: Cell viability assay (Cell Titre Glo, 72 hours) in PA1 cells; assay type: cell-based; settings: Homo sapiens, PA-1
Method: as §1, §2

## Cn1nc(C(=O)N2CCN(c3cc(F)cc(F)c3)CC2)c2ccccc2c1=O [Compound 54]
[1]
  IC50: ≤ 1000 nM
[2]
  IC50: ≤ 1000 nM

## Cc1cc(N2CCN(C(=O)c3nn(C)c(=O)c4ccccc34)CC2)ccn1 [Compound 74]
[1]
  IC50: > 20000 nM
[2]
  IC50: > 20000 nM

## Cn1nc(C(=O)N2CCN(c3cncc(C#N)c3)CC2)c2cc(F)ccc2c1=O [Compound 234, 5-(4-(7-fluoro-3-methyl-4-oxo-3,4-dihydrophthalazine-1-carbonyl)piperazin-1-yl)nicotinonitrile]
[1]
  IC50: > 20000 nM
[2]
  IC50: > 20000 nM

## CCn1nc(C(=O)N2CCN(c3ccc(F)c4c3CCO4)CC2)c2ccccc2c1=O [Compound 188]
[1]
  IC50: ≤ 1000 nM
[2]
  IC50: ≤ 1000 nM

## CCn1nc(C(=O)N2CCN(c3ccc(F)c4c3OCC4)CC2)c2ccccc2c1=O [Compound 186, 2-ethyl-4-(4-(4-fluoro-2,3-dihydrobenzofuran-7-yl)piperazine-1-carbonyl)phthalazin-1(2H)-one]
[1]
  IC50: ≤ 1000 nM
[2]
  IC50: ≤ 1000 nM

## CCn1nc(C(=O)N2CCN(c3cncc(C)c3)CC2)c2cc(F)ccc2c1=O [Compound 238]
[1]
  IC50: ≤ 1000 nM
[2]
  IC50: ≤ 1000 nM

## Cn1nc(C(=O)N2CCN(c3cc(F)cc(C#N)c3)CC2)c2ccccc2c1=O [Compound 61, 3-fluoro-5-(4-(3-methyl-4-oxo-3,4-dihydrophthalazine-1-carbonyl)piperazin-1-yl)benzonitrile]
[1]
  IC50: ≤ 1000 nM
[2]
  IC50: ≤ 1000 nM

## CCc1ccncc1N1CCN(C(=O)c2nn(C)c(=O)c3ccc(F)cc23)CC1 [Compound 166]
[1]
  IC50: ≤ 1000 nM
[2]
  IC50: ≤ 1000 nM

## Cn1nc(C(=O)N2CCN(c3cccc4c3OC(F)(F)O4)CC2)c2ccccc2c1=O [Compound 80]
[1]
  IC50: ≤ 1000 nM
[2]
  IC50: ≤ 1000 nM

## COc1ccccc1C1(C)CCN(C(=O)c2nn(C)c(=O)c3ccccc23)CC1 [Compound 249, 4-(4-(2-methoxyphenyl)-4-methylpiperidine-1-carbonyl)-2-methylphthalazin-1(2H)-one]
[1]
  IC50: 1000 to 10000 nM
[2]
  IC50: 1000 to 10000 nM

## Cc1cncc(N2CCN(C(=O)c3nn(C)c(=O)c4ccc(F)cc34)CC2)c1 [Compound 162]
[1]
  IC50: 1000 to 10000 nM
[2]
  IC50: ≤ 1000 nM

## CCn1nc(C(=O)N2CCN(c3ccccc3)CC2)c2ccccc2c1=O [Compound 3, 2-ethyl-4-(4-phenylpiperazine-1-carbonyl)phthalazin-1-one]
[1]
  IC50: 1000 to 10000 nM
[2]
  IC50: ≤ 1000 nM

## Cc1ccncc1N1CCN(C(=O)c2nn(C)c(=O)c3ccc(F)cc23)CC1 [Compound 167]
[1]
  IC50: ≤ 1000 nM
[2]
  IC50: ≤ 1000 nM

## CCn1nc(C(=O)N2CCN(c3cccc4c3oc(=O)n4C)CC2)c2ccccc2c1=O [Compound 90]
[1]
  IC50: > 20000 nM
[2]
  IC50: > 20000 nM

## Cn1nc(C(=O)N2CCN(c3cccc(C#N)n3)CC2)c2ccccc2c1=O [Compound 228]
[1]
  IC50: 10000 to 20000 nM
[2]
  IC50: 1000 to 10000 nM

## Cn1nc(C(=O)N2CCN(c3ccc4nccn4c3)CC2)c2ccccc2c1=O [Compound 202]
[1]
  IC50: > 20000 nM
[2]
  IC50: > 20000 nM

## CCn1nc(C(=O)N2CCN(c3ncc(F)cc3C)CC2)c2ccccc2c1=O [Compound 87]
[1]
  IC50: > 20000 nM
[2]
  IC50: > 20000 nM

## Cn1nc(C(=O)N2CCN(c3ccnc4cnn(C)c34)CC2)c2ccccc2c1=O [Compound 193]
[1]
  IC50: > 20000 nM
[2]
  IC50: > 20000 nM

## Cn1nc(C(=O)N2CCN(c3cccc(F)c3)CC2)c2ccccc2c1=O [Compound 33]
[1]
  IC50: ≤ 1000 nM
[2]
  IC50: ≤ 1000 nM

## Cn1nc(C(=O)N2CCN(c3ccc(C(F)(F)F)cc3)CC2)c2ccccc2c1=O [Compound 27]
[1]
  IC50: 1000 to 10000 nM
[2]
  IC50: 1000 to 10000 nM

## COc1ccc(N2CCN(C(=O)c3nn(C)c(=O)c4ccccc34)CC2)cc1 [Compound 29]
[1]
  IC50: > 20000 nM
[2]
  IC50: > 20000 nM

## CCn1nc(C(=O)N2CCN(c3cc(F)c(F)cc3OC)CC2)c2ccccc2c1=O [Compound 144]
[1]
  IC50: ≤ 1000 nM
[2]
  IC50: ≤ 1000 nM

## CCn1nc(C(=O)N2CCN(c3ncc(F)cc3OC)CC2)c2ccccc2c1=O [Compound 114]
[1]
  IC50: 1000 to 10000 nM
[2]
  IC50: ≤ 1000 nM

## Cn1nc(C(=O)N2CCN(c3ncccc3C3CC3)CC2)c2ccccc2c1=O [Compound 17]
[1]
  IC50: ≤ 1000 nM
[2]
  IC50: ≤ 1000 nM

## CCn1nc(C(=O)N2CCN(c3ccnc4c3OCC4)CC2)c2ccccc2c1=O [Compound 187]
[1]
  IC50: ≤ 1000 nM
[2]
  IC50: ≤ 1000 nM

## CCn1nc(C(=O)N2CCN(c3cccc(C#N)c3)CC2)c2ccccc2c1=O [Compound 207]
[1]
  IC50: ≤ 1000 nM
[2]
  IC50: ≤ 1000 nM

## CCn1nc(C(=O)N2CCN(c3cc(C)ccn3)CC2)c2ccccc2c1=O [Compound 110]
[1]
  IC50: 1000 to 10000 nM
[2]
  IC50: 1000 to 10000 nM

## Cc1cc(C)cc(N2CCN(C(=O)c3nn(C)c(=O)c4ccncc34)CC2)c1 [Compound 215]
[1]
  IC50: 1000 to 10000 nM
[2]
  IC50: ≤ 1000 nM

## Cn1nc(C(=O)N2CCN(c3cc(F)cc(Cl)c3)CC2)c2ccccc2c1=O [Compound 45]
[1]
  IC50: ≤ 1000 nM
[2]
  IC50: ≤ 1000 nM

## CCn1nc(C(=O)N2CCN(c3ncccc3C)CC2)c2ccccc2c1=O [Compound 106]
[1]
  IC50: 1000 to 10000 nM
[2]
  IC50: 1000 to 10000 nM

## COc1cc(C#N)ncc1N1CCN(C(=O)c2nn(C)c(=O)c3ccccc23)CC1 [Compound 24]
[1]
  IC50: > 20000 nM
[2]
  IC50: > 20000 nM

## Cn1nc(C(=O)N2CCN(c3ccc4ccnn4c3)CC2)c2ccccc2c1=O [Compound 203]
[1]
  IC50: > 20000 nM
[2]
  IC50: > 20000 nM

## Cn1nc(C(=O)N2CCN(c3cccc(C#N)c3)CC2)c2ccccc2c1=O [Compound 49]
[1]
  IC50: ≤ 1000 nM
[2]
  IC50: ≤ 1000 nM

## CCn1nc(C(=O)N2CCN(c3cc(F)cc(F)c3)CC2)c2ccccc2c1=O [Compound 142]
[1]
  IC50: ≤ 1000 nM
[2]
  IC50: ≤ 1000 nM

## CCn1nc(C(=O)N2CCN(c3cc(OC)c(Br)cn3)CC2)c2ccccc2c1=O [Compound 89]
[1]
  IC50: > 20000 nM
[2]
  IC50: > 20000 nM

## Cn1nc(C(=O)N2CCN(c3ccncc3F)CC2)c2ccccc2c1=O [Compound 18]
[1]
  IC50: > 20000 nM
[2]
  IC50: > 20000 nM

## O=C(c1nn(CC(F)(F)F)c(=O)c2ccccc12)N1CCN(c2ccccc2)CC1 [Compound 6]
[1]
  IC50: > 20000 nM
[2]
  IC50: > 20000 nM

## Cn1nc(C(=O)N2CCN(c3nccnc3C3CC3)CC2)c2ccccc2c1=O [Compound 21]
[1]
  IC50: > 20000 nM
[2]
  IC50: 1000 to 10000 nM

## COc1cc(C#N)cc(N2CCN(C(=O)c3nn(C)c(=O)c4ccncc34)CC2)c1 [Compound 216]
[1]
  IC50: ≤ 1000 nM
[2]
  IC50: ≤ 1000 nM

## CCn1nc(C(=O)N2CCN(c3ccccc3OC)CC2)c2ccccc2c1=O [Compound 101]
[1]
  IC50: ≤ 1000 nM
[2]
  IC50: ≤ 1000 nM

## Cc1cc(C#N)cc(N2CCN(C(=O)c3nn(C)c(=O)c4ccncc34)CC2)c1 [Compound 214]
[1]
  IC50: 1000 to 10000 nM
[2]
  IC50: ≤ 1000 nM

## CCn1nc(C(=O)N2CCN(c3cncnc3OC)CC2)c2ccccc2c1=O [Compound 83]
[1]
  IC50: 1000 to 10000 nM
[2]
  IC50: ≤ 1000 nM

## CCn1nc(C(=O)N2CCN(c3ncncc3C)CC2)c2ccccc2c1=O [Compound 113]
[1]
  IC50: > 20000 nM
[2]
  IC50: > 20000 nM

## COc1cnc(C)cc1N1CCN(C(=O)c2nn(C)c(=O)c3ccccc23)CC1 [Compound 78]
[1]
  IC50: 1000 to 10000 nM
[2]
  IC50: 1000 to 10000 nM

## CCn1nc(C(=O)N2CCN(c3nccnc3OC)CC2)c2ccccc2c1=O [Compound 99]
[1]
  IC50: 1000 to 10000 nM
[2]
  IC50: 1000 to 10000 nM

## COc1ccnc(N2CCN(C(=O)c3nn(C)c(=O)c4ccccc34)CC2)n1 [Compound 72]
[1]
  IC50: 1000 to 10000 nM
[2]
  IC50: 1000 to 10000 nM

## Cn1nc(C(=O)N2CCN(c3cc(C#N)cc(C4CC4)c3)CC2)c2ccccc2c1=O [Compound 206]
[1]
  IC50: ≤ 1000 nM
[2]
  IC50: ≤ 1000 nM

## Cn1nc(C(=O)N2CCN(c3ccncc3)CC2)c2ccccc2c1=O [Compound 28]
[1]
  IC50: > 20000 nM
[2]
  IC50: > 20000 nM

## Cn1nc(C(=O)N2CCN(c3cccc(C#N)c3)CC2)c2cc(F)ccc2c1=O [Compound 157, 3-(4-(7-fluoro-3-methyl-4-oxo-3,4-dihydrophthalazine-1-carbonyl)piperazin-1-yl)benzonitrile]
[1]
  IC50: ≤ 1000 nM
[2]
  IC50: ≤ 1000 nM

## Cc1ccc(C#N)cc1N1CCN(C(=O)c2nn(C)c(=O)c3ccc(F)cc23)CC1 [Compound 211]
[1]
  IC50: ≤ 1000 nM
[2]
  IC50: ≤ 1000 nM

## Cn1nc(C(=O)N2CCN(c3ccccc3F)CC2)c2ccccc2c1=O [Compound 30]
[1]
  IC50: 1000 to 10000 nM
[2]
  IC50: 1000 to 10000 nM

## CCn1nc(C(=O)N2CCN(c3cccnc3OC)CC2)c2ccccc2c1=O [Compound 143]
[1]
  IC50: ≤ 1000 nM
[2]
  IC50: ≤ 1000 nM

## CCn1nc(C(=O)N2CCN(c3ccc(F)cc3C3CC3)CC2)c2ccccc2c1=O [Compound 119]
[1]
  IC50: ≤ 1000 nM
[2]
  IC50: ≤ 1000 nM

## Cc1cc(N2CCN(C(=O)c3nn(C)c(=O)c4ccc(F)cc34)CC2)ccn1 [Compound 161]
[1]
  IC50: > 20000 nM
[2]
  IC50: > 20000 nM

## COc1ccncc1N1CCN(C(=O)c2nn(C)c(=O)c3ccc(Cl)cc23)CC1 [Compound 246, 6-chloro-4-(4-(4-methoxypyridin-3-yl)piperazine-1-carbonyl)-2-methylphthalazin-1(2H)-one]
[1]
  IC50: 1000 to 10000 nM
[2]
  IC50: ≤ 1000 nM

## COc1cc(F)c(F)cc1N1CCN(C(=O)c2nn(C)c(=O)c3ccccc23)CC1 [Compound 56]
[1]
  IC50: ≤ 1000 nM
[2]
  IC50: ≤ 1000 nM

## CCn1nc(C(=O)N2CCN(c3ccccc3Cl)CC2)c2ccccc2c1=O [Compound 105]
[1]
  IC50: ≤ 1000 nM
[2]
  IC50: ≤ 1000 nM

## Cn1nc(C(=O)N2CCN(c3cccnc3)CC2)c2ccccc2c1=O [Compound 32]
[1]
  IC50: > 20000 nM
[2]
  IC50: > 20000 nM

## O=C(c1nn(CC(F)F)c(=O)c2ccccc12)N1CCN(c2ccccc2)CC1 [Compound 7]
[1]
  IC50: > 20000 nM
[2]
  IC50: > 20000 nM

## COc1ccccc1N1CCN(C(=O)c2nn(C)c(=O)c3ccncc23)CC1 [Compound 175]
[1]
  IC50: 1000 to 10000 nM
[2]
  IC50: ≤ 1000 nM

## CC(C)n1nc(C(=O)N2CCN(c3ccccc3)CC2)c2ccccc2c1=O [Compound 4]
[1]
  IC50: > 20000 nM
[2]
  IC50: 10000 to 20000 nM
